US9452986B2, “6-heteroaryloxy- or 6-aryloxy-quinoline-2-carboxamides and method of use” (AbbVie Inc., priority 2014, dated 2016)

target: recombinant human Nav1.7 (Homo sapiens (Human), UniProt Q15858); assay: FRET-based membrane potential assay, recombinant human sodium channel Nav1.7; assay type: cell-based; details: HEK293 cells stably expressing recombinant human Nav1.7; veratridine + scorpion venom depolarization; read-out: FRET-Membrane Potential Nav1.7 IC50
Outline: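 Channel activation used veratridine at its EC80, set by a dilution curve each experiment, together with Leiurus scorpion venom, added 3 min after compound. Membrane-potential ratio signals from FLIPR Tetra in HEPES-buffered HBSS were fitted to a four-parameter Hill equation for percent inhibition and IC50.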

Sequence of recombinant human Nav1.7 (Q15858 whole entry): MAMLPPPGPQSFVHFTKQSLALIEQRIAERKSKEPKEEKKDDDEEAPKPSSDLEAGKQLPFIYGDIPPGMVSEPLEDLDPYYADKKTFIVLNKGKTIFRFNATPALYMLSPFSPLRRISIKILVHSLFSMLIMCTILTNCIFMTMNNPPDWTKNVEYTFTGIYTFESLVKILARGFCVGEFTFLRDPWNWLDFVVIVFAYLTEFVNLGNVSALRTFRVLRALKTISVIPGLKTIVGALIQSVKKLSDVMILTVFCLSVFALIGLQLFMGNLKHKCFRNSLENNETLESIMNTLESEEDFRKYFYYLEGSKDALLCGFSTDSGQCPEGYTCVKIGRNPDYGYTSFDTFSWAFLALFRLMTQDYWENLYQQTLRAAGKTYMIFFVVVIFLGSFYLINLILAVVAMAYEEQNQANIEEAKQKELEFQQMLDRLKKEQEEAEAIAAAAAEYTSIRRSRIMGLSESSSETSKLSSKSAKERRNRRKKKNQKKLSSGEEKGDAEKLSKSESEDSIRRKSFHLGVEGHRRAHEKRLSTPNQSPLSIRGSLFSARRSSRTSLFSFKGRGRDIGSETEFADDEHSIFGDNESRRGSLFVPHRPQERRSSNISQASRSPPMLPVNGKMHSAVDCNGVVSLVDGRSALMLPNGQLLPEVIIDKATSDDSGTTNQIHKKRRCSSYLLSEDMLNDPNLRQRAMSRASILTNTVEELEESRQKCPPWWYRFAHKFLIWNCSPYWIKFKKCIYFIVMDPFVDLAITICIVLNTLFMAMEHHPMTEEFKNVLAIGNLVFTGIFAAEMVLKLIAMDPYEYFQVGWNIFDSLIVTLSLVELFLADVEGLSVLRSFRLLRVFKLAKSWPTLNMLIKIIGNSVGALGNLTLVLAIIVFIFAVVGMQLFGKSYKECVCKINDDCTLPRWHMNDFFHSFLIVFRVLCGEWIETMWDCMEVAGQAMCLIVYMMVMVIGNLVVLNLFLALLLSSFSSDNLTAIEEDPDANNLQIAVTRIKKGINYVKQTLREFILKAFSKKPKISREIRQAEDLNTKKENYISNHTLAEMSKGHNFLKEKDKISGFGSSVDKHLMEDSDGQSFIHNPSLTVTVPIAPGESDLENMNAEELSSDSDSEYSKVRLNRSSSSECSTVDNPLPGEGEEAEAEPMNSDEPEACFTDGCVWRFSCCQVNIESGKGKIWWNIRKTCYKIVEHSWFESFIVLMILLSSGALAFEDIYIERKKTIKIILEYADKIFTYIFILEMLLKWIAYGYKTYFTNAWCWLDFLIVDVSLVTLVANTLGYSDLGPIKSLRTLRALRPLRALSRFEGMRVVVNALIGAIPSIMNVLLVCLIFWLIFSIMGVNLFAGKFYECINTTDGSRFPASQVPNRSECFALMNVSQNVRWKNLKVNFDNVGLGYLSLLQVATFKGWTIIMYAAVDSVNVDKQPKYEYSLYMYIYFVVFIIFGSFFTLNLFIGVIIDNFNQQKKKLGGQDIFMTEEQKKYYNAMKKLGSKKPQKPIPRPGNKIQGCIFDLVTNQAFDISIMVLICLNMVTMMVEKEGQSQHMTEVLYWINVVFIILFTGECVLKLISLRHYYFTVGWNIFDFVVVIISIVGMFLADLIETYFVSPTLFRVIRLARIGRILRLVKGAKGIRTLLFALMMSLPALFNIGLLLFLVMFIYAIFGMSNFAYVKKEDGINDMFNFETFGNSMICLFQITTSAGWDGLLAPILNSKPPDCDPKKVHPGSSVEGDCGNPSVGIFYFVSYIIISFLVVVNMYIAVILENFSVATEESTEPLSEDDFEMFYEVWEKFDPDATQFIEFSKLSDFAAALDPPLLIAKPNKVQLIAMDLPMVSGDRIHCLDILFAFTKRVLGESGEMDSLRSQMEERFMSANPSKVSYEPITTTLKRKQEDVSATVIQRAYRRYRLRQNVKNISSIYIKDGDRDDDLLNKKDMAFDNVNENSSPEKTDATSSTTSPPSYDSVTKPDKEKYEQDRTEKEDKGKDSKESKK

Row | Structure (SMILES) | IC50 [µM]
1 | O=C(c1ccc2cc(Oc3ccc(C(F)(F)F)cn3)ccc2n1)N1C[C@@H](F)C[C@@H]1c1cc(F)ccc1F [Example 179, [(2R,4S)-2-(2,5-difluorophenyl)-4-fluoropyrrolidin-1-yl](6-{[5-(trifluoromethyl)pyridin-2-yl]oxy}quinolin-2-yl)methanone] | 0.684
2 | O=C(c1ccc2cc(Oc3ccc(C(F)(F)F)cn3)ccc2n1)N1C[C@H](F)C[C@@H]1c1cc(F)ccc1F [Example 180, [(2R,4R)-2-(2,5-difluorophenyl)-4-fluoropyrrolidin-1-yl](6-{[5-(trifluoromethyl)pyridin-2-yl]oxy}quinolin-2-yl)methanone] | 0.675
3 | O=C(c1ccc2cc(Oc3ccc(C(F)(F)F)cn3)ccc2n1)N1CCN(CC(F)(F)F)CC1 [Example 181, [4-(2,2,2-trifluoroethyl)piperazin-1-yl](6-{[5-(trifluoromethyl)pyridin-2-yl]oxy}quinolin-2-yl)methanone] | 3.47
4 | O=C(c1ccc2cc(Oc3ccc(C(F)(F)F)cn3)ccc2n1)N1CCN(c2ccccn2)CC1 [Example 182, [4-(pyridin-2-yl)piperazin-1-yl](6-{[5-(trifluoromethyl)pyridin-2-yl]oxy}quinolin-2-yl)methanone] | 0.69
5 | O=C(c1ccc2cc(Oc3ccc(C(F)(F)F)cn3)ccc2n1)N1CCN(S(=O)(=O)c2cccnc2)CC1 [Example 183, [4-(pyridin-3-ylsulfonyl)piperazin-1-yl](6-{[5-(trifluoromethyl)pyridin-2-yl]oxy}quinolin-2-yl)methanone] | > 20
6 | O=C(c1ccc2cc(Oc3ccc(C(F)(F)F)cn3)ccc2n1)N1CCN(S(=O)(=O)N2CCCCC2)CC1 [Example 184, [4-(piperidin-1-ylsulfonyl)piperazin-1-yl](6-{[5-(trifluoromethyl)pyridin-2-yl]oxy}quinolin-2-yl)methanone] | 0.923
7 | O=C(c1ccc2cc(Oc3ccc(C(F)(F)F)cn3)ccc2n1)N1CCN(S(=O)(=O)N2CCOCC2)CC1 [Example 185, [4-(morpholin-4-ylsulfonyl)piperazin-1-yl](6-{[5-(trifluoromethyl)pyridin-2-yl]oxy}quinolin-2-yl)methanone] | > 20
8 | COC(=O)N1CCN(C(=O)c2ccc3cc(Oc4ccc(C(F)(F)F)cn4)ccc3n2)CC1 [Example 186, methyl 4-[(6-{[5-(trifluoromethyl)pyridin-2-yl]oxy}quinolin-2-yl)carbonyl]piperazine-1-carboxylate] | 3.97
9 | CN(C)C(=O)N1CCN(C(=O)c2ccc3cc(Oc4ccc(C(F)(F)F)cn4)ccc3n2)CC1 [Example 187, N,N-dimethyl-4-[(6-{[5-(trifluoromethyl)pyridin-2-yl]oxy}quinolin-2-yl)carbonyl]piperazine-1-carboxamide] | > 20
10 | CN1C(=O)CN(C(=O)c2ccc3cc(Oc4ccc(C(F)(F)F)cn4)ccc3n2)CC12COC2 [Example 188, 5-methyl-8-[(6-{[5-(trifluoromethyl)pyridin-2-yl]oxy}quinolin-2-yl)carbonyl]-2-oxa-5,8-diazaspiro[3.5]nonan-6-one] | 9.53
11 | O=C(c1ccc2cc(Oc3ccc(C(F)(F)F)cn3)ccc2n1)N1CC2CNCCN2C1=O (centres unmarked) [Example 189, 2-[(6-{[5-(trifluoromethyl)pyridin-2-yl]oxy}quinolin-2-yl)carbonyl]hexahydroimidazo[1,5-a]pyrazin-3(2H)-one] | 15.1
12 | O=C(c1ccc2cc(Oc3ccc(C(F)(F)F)cn3)ccc2n1)N1CCC(F)(F)C(O)C1 (centres unmarked) [Example 193, (4,4-difluoro-3-hydroxypiperidin-1-yl)(6-{[5-(trifluoromethyl)pyridin-2-yl]oxy}quinolin-2-yl)methanone] | 4.25
13 | C[C@H]1N(C(=O)c2ccc3cc(Oc4ccc(C(F)(F)F)cn4)ccc3n2)CC1(C)C [Example 197, (6-{[5-(trifluoromethyl)pyridin-2-yl]oxy}quinolin-2-yl)[(2R)-2,3,3-trimethylazetidin-1-yl]methanone] | 2.72
14 | CC1(O)CN(C(=O)c2ccc3cc(Oc4ccc(C(F)(F)F)cn4)ccc3n2)C1 [Example 198, (3-hydroxy-3-methylazetidin-1-yl)(6-{[5-(trifluoromethyl)pyridin-2-yl]oxy}quinolin-2-yl)methanone] | 2.21
15 | CC1(Oc2ccccc2)CN(C(=O)c2ccc3cc(Oc4ccc(C(F)(F)F)cn4)ccc3n2)C1 [Example 200, (3-methyl-3-phenoxyazetidin-1-yl)(6-{[5-(trifluoromethyl)pyridin-2-yl]oxy}quinolin-2-yl)methanone] | > 20
16 | O=C(c1ccc2cc(Oc3ccc(C(F)(F)F)cn3)ccc2n1)N1CC(n2ccnc2)C1 [Example 202, [3-(1H-imidazol-1-yl)azetidin-1-yl](6-{[5-(trifluoromethyl)pyridin-2-yl]oxy}quinolin-2-yl)methanone] | 0.911
17 | O=C(c1ccc2cc(Oc3ccc(C(F)(F)F)cn3)ccc2n1)N1CC(Oc2ccc(Cl)cc2)C1 [Example 203, [3-(4-chlorophenoxy)azetidin-1-yl](6-{[5-(trifluoromethyl)pyridin-2-yl]oxy}quinolin-2-yl)methanone] | > 20
18 | O=C(c1ccc2cc(Oc3ccc(C(F)(F)F)cn3)ccc2n1)N1CC(n2cncn2)C1 [Example 204, [3-(1H-1,2,4-triazol-1-yl)azetidin-1-yl](6-{[5-(trifluoromethyl)pyridin-2-yl]oxy}quinolin-2-yl)methanone] | 1.63
19 | C[C@@H]1N(C(=O)c2ccc3cc(Oc4ccc(C(F)(F)F)cn4)ccc3n2)CC1(C)C [Example 205, (6-{[5-(trifluoromethyl)pyridin-2-yl]oxy}quinolin-2-yl)[(2S)-2,3,3-trimethylazetidin-1-yl]methanone] | 3.17
20 | O=C(c1ccc2cc(Oc3ccc(C(F)(F)F)cn3)ccc2n1)N1CC(Oc2ccc(Br)cc2)C1 [Example 206, [3-(4-bromophenoxy)azetidin-1-yl](6-{[5-(trifluoromethyl)pyridin-2-yl]oxy}quinolin-2-yl)methanone] | > 20
21 | CC(C)(O)c1ccc(Oc2ccc3nc(C(=O)N4CCNCC4)ccc3c2)cc1 [Example 209, {6-[4-(2-hydroxypropan-2-yl)phenoxy]quinolin-2-yl}(piperazin-1-yl)methanone] | 8.86
22 | NC(=O)c1ccc2cc(Oc3ccc(C(F)(F)F)cn3)ccc2n1 [Example 210, 6-{[5-(trifluoromethyl)pyridin-2-yl]oxy}quinoline-2-carboxamide] | > 20
23 | CN1CCN(C(=O)c2ccc3cc(Oc4ccc(C(F)(F)F)cn4)ccc3n2)CC1 [Example 211, (4-methylpiperazin-1-yl)(6-{[5-(trifluoromethyl)pyridin-2-yl]oxy}quinolin-2-yl)methanone] | 1.93
24 | O=C(c1ccc2cc(Oc3ccc(C(F)(F)F)cn3)ccc2n1)N1CCC(=O)N2C[C@@H](O)C[C@H]2C1 [Example 212, (8S,9aS)-8-hydroxy-2-[(6-{[5-(trifluoromethyl)pyridin-2-yl]oxy}quinolin-2-yl)carbonyl]octahydro-5H-pyrrolo[1,2-a][1,4]diazepin-5-one] | > 20
25 | O=C(c1ccc2cc(Oc3ccc(C(F)(F)F)cn3)ccc2n1)N1CC[C@@H]2CN[C@@H]2C1 [Example 213, (1S,6R)-3,8-diazabicyclo[4.2.0]oct-3-yl(6-{[5-(trifluoromethyl)pyridin-2-yl]oxy}quinolin-2-yl)methanone] | 9.4
26 | CS(=O)(=O)c1ccc(Oc2ccc3nc(C(=O)N4CCNCC4)ccc3c2)cc1 [Example 214, {6-[4-(methylsulfonyl)phenoxy]quinolin-2-yl}(piperazin-1-yl)methanone] | > 20
27 | O=C(c1ccc2cc(Oc3ccc(S(=O)(=O)C(F)(F)F)cc3)ccc2n1)N1CCNCC1 [Example 215, piperazin-1-yl(6-{4-[(trifluoromethyl)sulfonyl]phenoxy}quinolin-2-yl)methanone] | 0.81
28 | O=C(NC1CNC1)c1ccc2cc(Oc3ccc(C(F)(F)F)cn3)ccc2n1 [Example 216, N-(azetidin-3-yl)-6-{[5-(trifluoromethyl)pyridin-2-yl]oxy}quinoline-2-carboxamide] | 1.67
29 | O=C(c1ccc2cc(Oc3ccc(C(F)(F)F)cn3)ccc2n1)N1CC(c2cccnc2)C1 [Example 217, [3-(pyridin-3-yl)azetidin-1-yl](6-{[5-(trifluoromethyl)pyridin-2-yl]oxy}quinolin-2-yl)methanone] | 1.04

same assay, conditions: read-out: FRET-Membrane Potential Nav1.7 IC50

Row | Structure (SMILES) | IC50 [µM]
30 | O=C(c1ccc2cc(Oc3ccc(C(F)(F)F)cn3)ccc2n1)N1CCN(S(=O)(=O)c2ccccc2)CC1 [Example 178, [4-(phenylsulfonyl)piperazin-1-yl](6-{[5-(trifluoromethyl)pyridin-2-yl]oxy}quinolin-2-yl)methanone] | 0.523
31 | O=C(c1ccc2cc(Oc3ccc(C(F)(F)F)cn3)ccc2n1)N1CCC(O)C(F)(F)C1 (centres unmarked) [Example 190, (3,3-difluoro-4-hydroxypiperidin-1-yl)(6-{[5-(trifluoromethyl)pyridin-2-yl]oxy}quinolin-2-yl)methanone] | 12.1
32 | COCC1(C)CN(C(=O)c2ccc3cc(Oc4ccc(C(F)(F)F)cn4)ccc3n2)C1 [Example 199, [3-(methoxymethyl)-3-methylazetidin-1-yl](6-{[5-(trifluoromethyl)pyridin-2-yl]oxy}quinolin-2-yl)methanone] | 2.55
33 | O=C(c1ccc2cc(Oc3ccc(C(F)(F)F)cn3)ccc2n1)N1CC(Oc2ccccc2)C1 [Example 201, (3-phenoxyazetidin-1-yl)(6-{[5-(trifluoromethyl)pyridin-2-yl]oxy}quinolin-2-yl)methanone] | > 20
34 | CC1(CO)CN(C(=O)c2ccc3cc(Oc4ccc(C(F)(F)F)cn4)ccc3n2)C1 [Example 207, [3-(hydroxymethyl)-3-methylazetidin-1-yl](6-{[5-(trifluoromethyl)pyridin-2-yl]oxy}quinolin-2-yl)methanone] | 3.65
35 | O=C1NCCN(C(=O)c2ccc3cc(Oc4ccc(C(F)(F)F)cn4)ccc3n2)C1c1ccccc1 (centres unmarked) [Example 208, 3-phenyl-4-[(6-{[5-(trifluoromethyl)pyridin-2-yl]oxy}quinolin-2-yl)carbonyl]piperazin-2-one] | 3.05
